Literature values, collected in US6423320B1, “Inhibitor of immunoglobulin E antibody production” (Tayca Corporation, priority 1997, dated 2002).
Where a name gives a salt, the structure may show the parent alone.

System: IgE antibody production
Settings: Bio Industry, Vol. 13, No. 12, pp. 42-50 (1996)

## CCOCC(O)COc1ccc(NC(=O)CC[S+](C)C)cc1 (stereo not shown) [IPD, Suplatast Tosylate]
  Inhibitory action on the production of IgE antibody: extremely weak inhibitory action
